Measurements reported in patent US10759781B2, “Substituted guanidine derivatives” (UBE INDUSTRIES, LTD., priority 2015, dated 2020).
Where a name gives a salt, the structure may show the parent alone.

Tests used:
Human VAP-1 enzyme = target: T1, Human VAP-1 enzyme (Homo sapiens, UniProt Q16853); assay: Human VAP-1 enzyme inhibition test; format: biochemical; conditions: 1 h; compound 30 nM; 14C-benzylamine 100 μM; read-out: inhibition ratio (human VAP-1 enzyme)
T1 construct: purchased R&D Systems, Inc
T1 sequence (Q16853 1-763): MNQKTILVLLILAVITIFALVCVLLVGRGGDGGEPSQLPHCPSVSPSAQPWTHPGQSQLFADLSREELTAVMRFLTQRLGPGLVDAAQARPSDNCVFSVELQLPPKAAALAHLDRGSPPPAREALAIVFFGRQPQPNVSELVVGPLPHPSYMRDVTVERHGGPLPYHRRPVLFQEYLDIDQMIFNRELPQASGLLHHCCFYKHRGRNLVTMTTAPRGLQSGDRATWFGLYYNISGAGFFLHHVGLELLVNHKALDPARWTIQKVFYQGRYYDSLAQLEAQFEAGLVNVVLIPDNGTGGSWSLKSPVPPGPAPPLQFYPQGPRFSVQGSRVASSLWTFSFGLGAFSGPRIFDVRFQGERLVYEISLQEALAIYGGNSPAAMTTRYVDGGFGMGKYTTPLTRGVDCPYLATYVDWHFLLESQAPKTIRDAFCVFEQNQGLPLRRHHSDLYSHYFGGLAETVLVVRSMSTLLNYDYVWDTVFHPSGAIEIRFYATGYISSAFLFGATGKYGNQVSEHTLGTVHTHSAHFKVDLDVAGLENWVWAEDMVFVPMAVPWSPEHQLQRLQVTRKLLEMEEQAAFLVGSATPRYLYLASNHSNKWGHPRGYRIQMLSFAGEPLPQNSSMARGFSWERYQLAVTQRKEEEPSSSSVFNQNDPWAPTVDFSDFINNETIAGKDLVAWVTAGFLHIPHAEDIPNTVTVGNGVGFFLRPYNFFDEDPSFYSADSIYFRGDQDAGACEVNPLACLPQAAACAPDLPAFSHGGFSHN
In short: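 Activity measured as radioactive oxidation product of 14C-benzylamine (100 μM final), extracted with toluene/ethyl acetate after citric acid stop and scintillation-counted. Enzyme (recombinant human VAP-1) first exposed to compound 20 min at room temperature, reaction then 1 h at 37 °C. Percent inhibition versus DMSO control.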

Rat Plasma VAP-1 = target: T2, Rat Plasma VAP-1 (Rattus norvegicus, UniProt O08590); assay: (Ex vivo) rat plasma VAP-1 inhibition test after oral administration of the compound; format: in vivo; conditions: 3 hours after oral administration, SD male rats, read-out: inhibition ratio (plasma VAP-1, ex vivo)
T2 construct: from tissue; host or cells: plasma of SD male rats (7-12 weeks old) after oral dosing
T2 sequence (O08590 28-763 limits assumed): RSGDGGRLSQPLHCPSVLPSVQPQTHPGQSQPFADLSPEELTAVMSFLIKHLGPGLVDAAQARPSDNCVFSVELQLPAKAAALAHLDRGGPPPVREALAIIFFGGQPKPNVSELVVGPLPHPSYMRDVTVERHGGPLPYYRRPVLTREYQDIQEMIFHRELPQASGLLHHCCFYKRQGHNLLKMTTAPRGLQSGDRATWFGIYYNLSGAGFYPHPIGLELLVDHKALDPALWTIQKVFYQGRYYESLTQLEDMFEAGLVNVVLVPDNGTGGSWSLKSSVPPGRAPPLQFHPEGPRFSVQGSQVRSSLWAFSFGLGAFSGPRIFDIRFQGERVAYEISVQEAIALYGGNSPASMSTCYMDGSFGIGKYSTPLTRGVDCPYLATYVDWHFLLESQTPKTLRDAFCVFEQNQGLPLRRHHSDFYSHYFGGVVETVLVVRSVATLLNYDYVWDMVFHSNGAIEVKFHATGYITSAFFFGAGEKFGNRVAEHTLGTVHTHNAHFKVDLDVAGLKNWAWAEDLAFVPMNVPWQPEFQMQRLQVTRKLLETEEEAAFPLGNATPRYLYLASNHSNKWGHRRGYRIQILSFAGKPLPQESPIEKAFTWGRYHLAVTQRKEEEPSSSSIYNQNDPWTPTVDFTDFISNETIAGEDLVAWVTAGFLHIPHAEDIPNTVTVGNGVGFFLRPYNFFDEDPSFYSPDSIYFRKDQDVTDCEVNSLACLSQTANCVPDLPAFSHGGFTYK
Procedure: (Ex Vivo) Rat Plasma VAP-1 Inhibition Test after Oral Administration of the Compound
The compound was orally administered (0.3-10 mg/kg) to 7-12 week old SD male rats in the non-fasting state. Under anesthesia, the blood was collected in heparin tubes from the jugular vein before the administration and 3, 8 and 24 hours after the administration. The blood was centrifuged at 14000 rpm for 10 minutes to get plasma. The VAP-1 enzyme activity in the plasma was measured by radiochemical enzyme assay.
The radiochemical enzyme assay was conducted by modifying the method of P. H. Yu et al. (Diabetologia 40 1243 (1997)). ^14C-benzylamine (2.5 μM) was added to the obtained plasma, and was incubated at 37° C. for 3 hours. The reaction was terminated by the addition of 100 μL of 2 M citric acid solution to the reaction solution. The oxidative product was extracted using a toluene/ethyl acetate mixture and the radioactivity was measured with a liquid scintillation counter. The inhibition ratio of the compound was calculated using the following equation. Inhibition ratio={1−[Plasma VAP-1 activity after administration of the compound]/[Plasma VAP-1 activity before administration]}×100

SMILES | inhibition at 0.03 µM (Human VAP-1 enzyme) [%] | inhibition in vivo at 0.3 mg/kg (Rat Plasma VAP-1) [%]
N=C(N)NC(=O)OCc1cccc(-c2cnc(N3CCC(=NOCCO)CC3)nc2)c1F [Example 85, 2-Fluoro-3-(2-{4-[(2-hydroxyethoxy)imino]piperidin-1-yl}pyrimidin-5-yl)benzyl carbamimidoylcarbamate] | ≥ 50 | ≥ 50
N=C(N)NC(=O)OCc1cccc(-c2cnc(N3CCC(=NOCCCO)CC3)nc2)c1F [Example 86, 2-Fluoro-3-(2-{4-[(3-hydroxypropoxy)imino]piperidin-1-yl}pyrimidin-5-yl)benzyl carbamimidoylcarbamate hydrochloride] | ≥ 50 | ≥ 50
N=C(N)NC(=O)OCc1cccc(-c2cnc(N3CCC(=NOCCCCO)CC3)nc2)c1F [Example 87, 2-Fluoro-3-(2-{4-[(4-hydroxybutoxy)imino]piperidin-1-yl}pyrimidin-5-yl)benzyl carbamimidoylcarbamate hydrochloride] | ≥ 50 | ≥ 50
CC(O)CON=C1CCN(c2ncc(-c3cccc(COC(=O)NC(=N)N)c3F)cn2)CC1 (stereo not shown) [Example 90, 2-Fluoro-3-(2-{4-[(2-hydroxypropoxy)imino]piperidin-1-yl}pyrimidin-5-yl)benzyl carbamimidoylcarbamate] | ≥ 50 | ≥ 50
CC(CO)CON=C1CCN(c2ncc(-c3cccc(COC(=O)NC(=N)N)c3F)cn2)CC1 (stereo not shown) [Example 91, 2-Fluoro-3-(2-{4-[(3-hydroxy-2-methylpropoxy)imino]piperidin-1-yl}pyrimidin-5-yl)benzyl carbamimidoylcarbamate] | ≥ 50 | ≥ 50
N=C(N)NC(=O)OCc1cccc(-c2cnc(N3CC(=NOCCC(O)CO)C3)nc2)c1F (stereo not shown) [Example 94, 3-(2-{3-[(3,4-Dihydroxybutoxy)imino]azetidin-1-yl}pyrimidin-5-yl)-2-fluorobenzyl carbamimidoylcarbamate] | ≥ 50 | ≥ 50
N=C(N)NC(=O)OCc1cccc(-c2cnc(N3CCC(=NOCC(CO)CO)CC3)nc2)c1F [Example 97, 2-Fluoro-3-[2-(4-{[3-hydroxy-2-(hydroxymethyl)propoxy]imino}piperidin-1-yl)pyrimidin-5-yl]benzyl carbamimidoylcarbamate] | ≥ 50 | ≥ 50
CC(CO)(CO)CON=C1CCN(c2ncc(-c3cccc(COC(=O)NC(=N)N)c3F)cn2)CC1 [Example 98, 2-Fluoro-3-[2-(4-{[3-hydroxy-2-(hydroxymethyl)-2-methylpropoxy]imino}piperidin-1-yl)pyrimidin-5-yl]benzyl carbamimidoylcarbamate] | ≥ 50 | ≥ 50
N=C(N)NC(=O)OCc1cccc(-c2cnc(N3CCC(=NOCC(O)CO)CC3)nc2)c1F (stereo not shown) [Example 99, 3-(2-{4-[(2,3-Dihydroxypropoxy)imino]piperidin-1-yl}pyrimidin-5-yl)-2-fluorobenzyl carbamimidoylcarbamate] | ≥ 50 | ≥ 50
COC(CO)CON=C1CN(c2ncc(-c3cccc(COC(=O)NC(=N)N)c3F)cn2)C1 (stereo not shown) [Example 101, 2-Fluoro-3-(2-{3-[(3-hydroxy-2-methoxypropoxy)imino]azetidin-1-yl}pyrimidin-5-yl)benzyl carbamimidoylcarbamate] | ≥ 50 | ≥ 50
N=C(N)NC(=O)OCc1cccc(-c2cnc(N3CCC(=NO)CC3)nc2)c1F [Example 105, 2-Fluoro-3-{2-[4-(hydroxyimino)piperidin-1-yl]pyrimidin-5-yl}benzyl carbamimidoylcarbamate hydrochloride] | ≥ 50 | ≥ 50
N=C(N)NC(=O)OCc1cccc(-c2cnc(N3CCC(=NOCCC(N)=O)CC3)nc2)c1F [Example 150, 3-(2-{4-[(3-Amino-3-oxopropoxy)imino]piperidin-1-yl}pyrimidin-5-yl)-2-fluorobenzyl carbamimidoylcarbamate] | ≥ 50 | ≥ 50
CNC(=O)CCON=C1CCN(c2ncc(-c3cccc(COC(=O)NC(=N)N)c3F)cn2)CC1 [Example 151, 2-Fluoro-3-[2-(4-{[3-(methylamino)-3-oxopropoxy]imino}piperidin-1-yl)pyrimidin-5-yl]benzyl carbamimidoylcarbamate] | ≥ 50 | ≥ 50
N=C(N)NC(=O)OCc1cccc(-c2cnc(N3CCC(=NOCCCC(=O)O)CC3)nc2)c1F [Example 153, 4-[({1-[5-(3-{[(Carbamimidoylcarbamoyl)oxy]methyl}-2-fluorophenyl)pyrimidin-2-yl]piperidin-4-ylidene}amino)oxy]butanoic acid] | ≥ 50 | ≥ 50
CN(C)C(=O)CCON=C1CCN(c2ncc(-c3cccc(COC(=O)NC(=N)N)c3F)cn2)CC1 [Example 154, 3-[2-(4-{[3-(Dimethylamino)-3-oxopropoxy]imino}piperidin-1-yl)pyrimidin-5-yl]-2-fluorobenzyl carbamimidoylcarbamate] | ≥ 50 | ≥ 50
CC(=O)NCCON=C1CCN(c2ncc(-c3cccc(COC(=O)NC(=N)N)c3F)cn2)CC1 [Example 155, 3-(2-{4-[(2-Acetamidoethoxy)imino]piperidin-1-yl}pyrimidin-5-yl)-2-fluorobenzyl carbamimidoylcarbamate] | ≥ 50 | ≥ 50
CC(=O)N(C)CCON=C1CCN(c2ncc(-c3cccc(COC(=O)NC(=N)N)c3F)cn2)CC1 [Example 156, 2-Fluoro-3-[2-(4-{[2-(N-methylacetamido)ethoxy]imino}piperidin-1-yl)pyrimidin-5-yl]benzyl carbamimidoylcarbamate] | ≥ 50 | ≥ 50
CS(=O)(=O)NCCON=C1CCN(c2ncc(-c3cccc(COC(=O)NC(=N)N)c3F)cn2)CC1 [Example 159, 2-Fluoro-3-[2-(4-{[2-(methylsulfonamido)ethoxy]imino}piperidin-1-yl)pyrimidin-5-yl]benzyl carbamimidoylcarbamate] | ≥ 50 | ≥ 50
N#CCCON=C1CCN(c2ncc(-c3cccc(COC(=O)NC(=N)N)c3F)cn2)CC1 [Example 165, 3-(2-{4-[(2-Cyanoethoxy)imino]piperidin-1-yl}pyrimidin-5-yl)-2-fluorobenzyl carbamimidoylcarbamate] | ≥ 50 | ≥ 50
N#CCCCON=C1CCN(c2ncc(-c3cccc(COC(=O)NC(=N)N)c3F)cn2)CC1 [Example 166, 3-(2-{4-[(3-Cyanopropoxy)imino]piperidin-1-yl}pyrimidin-5-yl)-2-fluorobenzyl carbamimidoylcarbamate] | ≥ 50 | ≥ 50
